# According to patent US20200278355A1, “CONJUGATED PROTEINS AND USES THEREOF” (THE SCRIPPS RESEARCH INSTITUTE, priority 2017, published 2020):
# “Also recorded” adds a separate entry of the source.
# Experiments:
# [1] = test system: CRY1, DEPDC1, and CPLX2 expression in KEAP1-mutant NSCLC cells (H460, H2122); assay: Gene expression changes (RNA sequencing, qPCR) in KEAP1-mutant NSCLC cells; type: cell-based, human; details: 12 h; for gene expression changes (CRY1, DEPDC1, CPLX2): KEAP1-mutant NSCLC cells
# Method: FIG. 13A-FIG. 13E illustrate characterization of NR0B1 ligands in Keap1-mutant NSCLC cells. […] Top: Heat map depicting changes in gene expression between H460 cells expressing shNRF2, shNR0B1 or a control (shGFP) and those treated with vehicle (DMSO), BPK-29 or BPK-9 (30 μM, 12 h). Expression for each condition was first normalized to appropriate controls (shGFP or DMSO) and then normalized by row. Bottom: Overlap between gene sets regulated in BPK-29-treated vs shNR0B1 H460 cells. Gene set enrichment analysis (GSEA) was applied to all genes that were differentially expressed between shNR0B1-H460 cells and shGFP-H460 cells or between H460 cells treated with BPK-29 or DMSO. Genes were ranked based on their FDR. The FDR q-value was computed by GSEA on the C2.all collection and a cut off of FDR<0.05 was required for a gene set to be considered enriched. […] H460 (left) or H2009 (right) cells were treated with vehicle, BPK-29, or BPK-9 (25 μM, 12 h). Gene expression changes for CRY1, DEPDC1, and CPLX2 were determined by qPCR and data represents mean values+SD (n=4-10). […] Cells were treated with the vehicle, BPK-29, or BPK-9 (30 μM, 12 h). Gene expression changes for Cry1, DEPDC1, and CPLX2 were determined by qPCR and data represents mean values+SD (n=4-6). […] H460 cells were treated with vehicle or BPK-29 or BPK-9 at the indicated concentrations for 9 h. Protein expression was analyzed by immunoblotting. […] Top: H460 cells were treated with cycloheximide (100 μg/mL) for the indicated time points and NR0B1 protein content assessed by immunoblotting. […] NR0B1 protein content was determined following cycloheximide treatment and data were fit into a one-phase exponential decay model. […]
# RNA was isolated by RNeasy Kit (Qiagen) and digested with DNase (Qiagen) from n=3 samples per condition (cells expressing shGFP, shNRF2_1, shNR0B1_1 or shSNW1_1 or treated with DMSO, 30 μM BPK-29 or 30 μM BPK-9). RNA integrity (RIN) numbers were determined using the Agilent TapeStation prior to library preparation. mRNA-seq libraries were prepared using the TruSeq RNA library preparation kit (version 2) according to the manufacturer's instructions (Illumina). Libraries were then quantified, pooled, and sequenced by single-end 50 base pairs using the Illumina HiSeq 2500 platform at the Salk Next-Generation Sequencing Core. […] Libraries were sequenced at an average depth of 15 million reads per sample.
# The spliced read aligner STAR (Dobin et al., 2013) was used to align sequencing reads to the human hg19 genome. Gene-level read counts were obtained based on UCSC hg19 gene annotation. DESeq2 (Love et al., 2014) was used to calculate differential gene expression based on uniquely aligned reads, and p-values were adjusted for multiple hypothesis testing with the Benjamini-Hochberg method.
# [2] = test system: CRY1 protein content; assay: CRY1 protein content by immunoblotting in H460 cells; type: cell-based, human; details: 9 h
# Method: FIG. 13A-FIG. 13E illustrate characterization of NR0B1 ligands in Keap1-mutant NSCLC cells. […] Top: Heat map depicting changes in gene expression between H460 cells expressing shNRF2, shNR0B1 or a control (shGFP) and those treated with vehicle (DMSO), BPK-29 or BPK-9 (30 μM, 12 h). Expression for each condition was first normalized to appropriate controls (shGFP or DMSO) and then normalized by row. Bottom: Overlap between gene sets regulated in BPK-29-treated vs shNR0B1 H460 cells. Gene set enrichment analysis (GSEA) was applied to all genes that were differentially expressed between shNR0B1-H460 cells and shGFP-H460 cells or between H460 cells treated with BPK-29 or DMSO. Genes were ranked based on their FDR. […] Gene expression changes for CRY1, DEPDC1, and CPLX2 were determined by qPCR and data represents mean values+SD (n=4-10). […] Gene expression changes for Cry1, DEPDC1, and CPLX2 were determined by qPCR and data represents mean values+SD (n=4-6). […] Protein expression was analyzed by immunoblotting. […] Top: H460 cells were treated with cycloheximide (100 μg/mL) for the indicated time points and NR0B1 protein content assessed by immunoblotting. […] NR0B1 protein content was determined following cycloheximide treatment and data were fit into a one-phase exponential decay model. […]
SMILES,"gene expression changes (CRY1, DEPDC1, CPLX2) ([1]; 30 μM)",CRY1 protein content [2],"expression of representative genes (CRY1, DEPDC1, CPLX2) by qPCR ([1]; KEAP1-mutant H460 cells, 25 μM)","expression of representative genes (Cry1, DEPDC1, CPLX2) by qPCR ([1]; KEAP1-mutant H2122 cells, 30 μM)"
"O=C(c1ccc(N2CCOCC2)cc1)N1CCC(CN(C(=O)CCl)c2cncnc2)CC1 [BPK-9, 2-chloro-N-((1-(4-morpholinobenzoyl)piperidin-4-yl)methyl)-N-(pyrimidin-5-yl)acetamide]",not observed,not observed,–,–
"O=C(c1ccc(N2CCOCC2)cc1)N1CCCC(N(Cc2ccccc2)C(=O)CCl)CC1 (stereo not drawn) [BPK-29, N-benzyl-2-chloro-N-(1-(4-morpholinobenzoyl)azepan-4-yl)acetamide]","reductions in CRY1, DEPDC1, and CPLX2",reduces CRY1 protein content; also recorded: substantial reduction in CRY1 protein content,alters the expression,alters the expression
